Data as given in ChEMBL document CHEMBL1201862, “PubChem BioAssay data set” (2004).
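All cell lines were grown in 96-well plates and treated with compound for 48 hours. At the GI50, growth is halved.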 Calls of active or inactive are those of the source. Cut-off read from the data, not from the text of the source: active = GI50 up to about 1.1 µM and inactive = higher.

Columns and labels:
Assay in all cases: NCI-60 cell line screen, 48 h
SR = tested on: SR
KM12 = tested on: KM12
CCRF-CEM = tested on: CCRF-CEM
SF-268 = tested on: SF-268
786-0 = tested on: 786-0
EKVX = tested on: EKVX
HCT-15 = tested on: HCT-15
Malme-3M = tested on: Malme-3M
MDA-MB-435 = tested on: MDA-MB-435
K562 = tested on: K562
A498 = tested on: A498
DU-145 = tested on: DU-145
OVCAR-5 = tested on: OVCAR-5
RXF 393 = tested on: RXF 393
HL-60 = tested on: HL-60
UO-31 = tested on: UO-31
MDA-N = tested on: MDA-N
NCI-H226 = tested on: NCI-H226
TK-10 = tested on: TK-10
MCF7 = tested on: MCF7
COLO 205 = tested on: COLO 205
BT-549 = tested on: BT-549
UACC-257 = tested on: UACC-257
LOX IMVI = tested on: LOX IMVI
UACC-62 = tested on: UACC-62
NCI/ADR-RES = tested on: NCI/ADR-RES
MDA-MB-231 = tested on: MDA-MB-231
CAKI-1 = tested on: CAKI-1
HCC 2998 = tested on: HCC 2998
SNB-75 = tested on: SNB-75
NCI-H522 = tested on: NCI-H522
IGROV-1 = tested on: IGROV-1
NCI-H23 = tested on: NCI-H23
SW-620 = tested on: SW-620
HT-29 = tested on: HT-29
MOLT-4 = tested on: MOLT-4
U-251 = tested on: U-251
NCI-H460 = tested on: NCI-H460
SN12C = tested on: SN12C
SF-539 = tested on: SF-539
ACHN = tested on: ACHN
SK-MEL-28 = tested on: SK-MEL-28
T47D = tested on: T47D
OVCAR-8 = tested on: OVCAR-8
HCT-116 = tested on: HCT-116
HOP-92 = tested on: HOP-92
OVCAR-4 = tested on: OVCAR-4
SNB-19 = tested on: SNB-19
SK-MEL-2 = tested on: SK-MEL-2
A549 = tested on: A549
HOP-62 = tested on: HOP-62
PC-3 = tested on: PC-3
RPMI-8226 = tested on: RPMI-8226
M14 = tested on: M14
SK-OV-3 = tested on: SK-OV-3
SF-295 = tested on: SF-295
OVCAR-3 = tested on: OVCAR-3
Hs-578T = tested on: Hs-578T
SK-MEL-5 = tested on: SK-MEL-5

## CCOC(=O)/C=C/c1cccc(F)c1
SR
  GI50: > 100 µM (inactive)
KM12
  GI50: > 100 µM (inactive)
CCRF-CEM
  GI50: > 100 µM (inactive)
SF-268
  GI50: > 100 µM (inactive)
786-0
  GI50: > 100 µM (inactive)
EKVX
  GI50: > 100 µM (inactive)
HCT-15
  GI50: > 100 µM
Malme-3M
  GI50: > 100 µM (inactive)
MDA-MB-435
  GI50: > 100 µM (inactive)
K562
  GI50: > 100 µM (inactive)
A498
  GI50: > 100 µM (inactive)
DU-145
  GI50: > 100 µM (inactive)
OVCAR-5
  GI50: > 100 µM (inactive)
RXF 393
  GI50: > 100 µM (inactive)
HL-60
  GI50: > 100 µM (inactive)
UO-31
  GI50: > 100 µM (inactive)
MDA-N
  GI50: > 100 µM (inactive)
NCI-H226
  GI50: > 100 µM (inactive)
TK-10
  GI50: > 100 µM (inactive)
MCF7
  GI50: > 100 µM (inactive)
COLO 205
  GI50: > 100 µM (inactive)
BT-549
  GI50: > 100 µM (inactive)
UACC-257
  GI50: > 100 µM (inactive)
LOX IMVI
  GI50: > 100 µM (inactive)
UACC-62
  GI50: > 100 µM (inactive)
NCI/ADR-RES
  GI50: > 100 µM (inactive)
MDA-MB-231
  GI50: > 100 µM (inactive)
CAKI-1
  GI50: > 100 µM (inactive)
HCC 2998
  GI50: > 100 µM (inactive)
SNB-75
  GI50: > 100 µM (inactive)
NCI-H522
  GI50: > 100 µM (inactive)
IGROV-1
  GI50: > 100 µM (inactive)
NCI-H23
  GI50: > 100 µM (inactive)
SW-620
  GI50: > 100 µM (inactive)
HT-29
  GI50: > 100 µM (inactive)
MOLT-4
  GI50: > 100 µM (inactive)
U-251
  GI50: > 100 µM (inactive)
NCI-H460
  GI50: > 100 µM (inactive)
SN12C
  GI50: > 100 µM (inactive)
SF-539
  GI50: > 100 µM (inactive)
ACHN
  GI50: > 100 µM (inactive)
SK-MEL-28
  GI50: > 100 µM (inactive)
T47D
  GI50: > 100 µM (inactive)
OVCAR-8
  GI50: > 100 µM (inactive)
HCT-116
  GI50: > 100 µM (inactive)
HOP-92
  GI50: > 100 µM (inactive)
OVCAR-4
  GI50: > 100 µM (inactive)
SNB-19
  GI50: > 100 µM (inactive)
SK-MEL-2
  GI50: > 100 µM (inactive)
A549
  GI50: > 100 µM (inactive)
HOP-62
  GI50: > 100 µM (inactive)
PC-3
  GI50: > 100 µM (inactive)
RPMI-8226
  GI50: > 100 µM (inactive)
M14
  GI50: > 100 µM (inactive)

## O=C(CN1CCOCC1)c1ccc2[nH]c(=O)oc2c1
SK-OV-3
  GI50: > 100 µM (inactive)
SR
  GI50: > 100 µM (inactive)
KM12
  GI50: > 100 µM (inactive)
CCRF-CEM
  GI50: > 100 µM (inactive)
SF-268
  GI50: > 100 µM (inactive)
786-0
  GI50: > 100 µM (inactive)
EKVX
  GI50: > 100 µM (inactive)
HCT-15
  GI50: > 100 µM
Malme-3M
  GI50: > 100 µM (inactive)
MDA-MB-435
  GI50: > 100 µM (inactive)
K562
  GI50: > 100 µM (inactive)
A498
  GI50: > 100 µM (inactive)
DU-145
  GI50: > 100 µM (inactive)
OVCAR-5
  GI50: > 100 µM (inactive)
RXF 393
  GI50: > 100 µM (inactive)
HL-60
  GI50: > 100 µM (inactive)
UO-31
  GI50: 41.9 µM (inactive)
MDA-N
  GI50: > 100 µM (inactive)
NCI-H226
  GI50: > 100 µM (inactive)
SF-295
  GI50: > 100 µM (inactive)
TK-10
  GI50: > 100 µM (inactive)
MCF7
  GI50: > 100 µM (inactive)
COLO 205
  GI50: > 100 µM (inactive)
BT-549
  GI50: > 100 µM (inactive)
UACC-257
  GI50: > 100 µM (inactive)
LOX IMVI
  GI50: > 100 µM (inactive)
UACC-62
  GI50: > 100 µM (inactive)
NCI/ADR-RES
  GI50: > 100 µM (inactive)
MDA-MB-231
  GI50: > 100 µM (inactive)
CAKI-1
  GI50: > 100 µM (inactive)
OVCAR-3
  GI50: > 100 µM (inactive)
Hs-578T
  GI50: > 100 µM (inactive)
SNB-75
  GI50: 77.4 µM (inactive)
IGROV-1
  GI50: > 100 µM (inactive)
NCI-H23
  GI50: > 100 µM (inactive)
SW-620
  GI50: > 100 µM (inactive)
HT-29
  GI50: > 100 µM (inactive)
MOLT-4
  GI50: > 100 µM (inactive)
U-251
  GI50: > 100 µM (inactive)
SK-MEL-5
  GI50: > 100 µM (inactive)
NCI-H460
  GI50: > 100 µM (inactive)
SN12C
  GI50: > 100 µM (inactive)
SF-539
  GI50: > 100 µM (inactive)
ACHN
  GI50: > 100 µM (inactive)
SK-MEL-28
  GI50: > 100 µM (inactive)
OVCAR-8
  GI50: > 100 µM (inactive)
HCT-116
  GI50: > 100 µM (inactive)
SNB-19
  GI50: > 100 µM (inactive)
SK-MEL-2
  GI50: > 100 µM (inactive)
HOP-62
  GI50: > 100 µM (inactive)
PC-3
  GI50: > 100 µM (inactive)
RPMI-8226
  GI50: > 100 µM (inactive)
M14
  GI50: > 100 µM (inactive)

## COc1ccc2c(c1)OCC1Cc3ccccc3OC21 (stereo not given)
SK-OV-3
  GI50: > 100 µM (inactive)
SR
  GI50: > 100 µM (inactive)
KM12
  GI50: 74 µM (inactive)
CCRF-CEM
  GI50: > 100 µM (inactive)
SF-268
  GI50: > 100 µM (inactive)
786-0
  GI50: > 100 µM (inactive)
EKVX
  GI50: 49.9 µM (inactive)
HCT-15
  GI50: > 100 µM
Malme-3M
  GI50: > 100 µM (inactive)
MDA-MB-435
  GI50: > 100 µM (inactive)
K562
  GI50: > 100 µM (inactive)
A498
  GI50: > 10 µM (inactive)
DU-145
  GI50: > 100 µM (inactive)
OVCAR-5
  GI50: > 100 µM (inactive)
HL-60
  GI50: > 100 µM (inactive)
UO-31
  GI50: > 100 µM (inactive)
MDA-N
  GI50: > 10 µM (inactive)
NCI-H226
  GI50: > 100 µM (inactive)
SF-295
  GI50: > 100 µM (inactive)
TK-10
  GI50: > 100 µM (inactive)
MCF7
  GI50: > 100 µM (inactive)
COLO 205
  GI50: > 100 µM (inactive)
BT-549
  GI50: > 100 µM (inactive)
UACC-257
  GI50: 52 µM (inactive)
LOX IMVI
  GI50: > 100 µM (inactive)
UACC-62
  GI50: > 100 µM (inactive)
NCI/ADR-RES
  GI50: > 100 µM (inactive)
MDA-MB-231
  GI50: > 100 µM (inactive)
CAKI-1
  GI50: > 100 µM (inactive)
OVCAR-3
  GI50: > 100 µM (inactive)
HCC 2998
  GI50: > 100 µM (inactive)
SNB-75
  GI50: > 100 µM (inactive)
NCI-H522
  GI50: > 100 µM (inactive)
IGROV-1
  GI50: > 100 µM (inactive)
NCI-H23
  GI50: > 100 µM (inactive)
SW-620
  GI50: > 100 µM (inactive)
HT-29
  GI50: > 100 µM (inactive)
MOLT-4
  GI50: 54.1 µM (inactive)
U-251
  GI50: > 10 µM (inactive)
SK-MEL-5
  GI50: > 10 µM (inactive)
SN12C
  GI50: > 100 µM (inactive)
SF-539
  GI50: > 100 µM (inactive)
ACHN
  GI50: > 100 µM (inactive)
T47D
  GI50: > 100 µM (inactive)
OVCAR-8
  GI50: > 100 µM (inactive)
HCT-116
  GI50: > 100 µM (inactive)
HOP-92
  GI50: > 100 µM (inactive)
SK-MEL-2
  GI50: > 100 µM (inactive)
A549
  GI50: > 100 µM (inactive)
HOP-62
  GI50: > 100 µM (inactive)
PC-3
  GI50: 98.4 µM (inactive)
RPMI-8226
  GI50: 75.7 µM (inactive)
M14
  GI50: 69.5 µM (inactive)
